The values that follow come from patent US20240239813A1, “KRAS INHIBITORS AND PHARMACEUTICAL USES THEREOF” (RISEN (SUZHOU) PHARMA TECH CO., LTD., priority 2022, published 2024).

Structures are written as SMILES.

What is called IC50 is the point on the concentration scale where inhibition reaches its midpoint.

One test has as its system NCI-H358. The test can be described thus: Cell proliferation assay (CellTiterGlo), NCI-H358. The test is classed as cell-based. The following applies: Homo sapiens, NCI-H358, 72 hours. The protocol:
(§1) A cell proliferation assay was used to evaluate inhibition by exemplary compounds. Proliferation assays used human tissue derived cancer cell lines, for example, AsPC-1 (Cobioer, CBP60546), GP2D (Cobioer, CBP60683), NCI-H358 (Cobioer, CBP60544), NCI-H727 (Cobioer, CBP60182), MKN-1 (Cobioer, CBP60486), HCT116 (ATCC, CCL-247), and HT-29 (Cobioer, CBP60011). Signal reflecting cell proliferation was detected with the CellTiterGlo kit (Promega, G7573).
(§2) Cells were cultured in the growth phase and 3×10^3 cells per well were plated in a 96-well plate (Greiner, 655090). Cells were incubated 24 hours at 37° C. and 5% carbon dioxide in a humidity chamber. Serially diluted exemplary compounds were added to the plate which was then incubated for another 72 hours. Plates were brought to room temperature and an equal volume of CellTiterGlo reagent was added. After 10 minutes incubation at room temperature to stabilize the signal, the luminescent signal was measured on the VICTOR Nivo multimode plate reader according to the manufacturer's instructions. The signal was converted to percent inhibition using the following formula: […]
(§3) (where the “Maximum Signal” are wells containing DMSO without inhibitor; the “Minimum Signal” are signal of wells recorded at Day 0 prior to commencement of the experiment; the “Test compound signal” are wells containing inhibitor at established concentrations).
(§4) IC50 was determined by fitting percent inhibition at each inhibitor concentration to the four-parameter nonlinear logistic equation using GraphPad Prism. IC50 (nM) values of selected compounds are depicted in Table 4. “-”: means without measuring; and “ND” means not detected.
For orientation: ATP-based viability assays read luminescence as a measure of living cells.

Another test relates to GP2D. The test can be described thus: Cell proliferation assay (CellTiterGlo), GP2D. It counts as cell-based. Particulars: Homo sapiens, 72 hours. The method, then: as §1, §2, §3, §4
In test [1] the target is His-tagged Human KRAS^G12D (Homo sapiens (Human), UniProt P01116, G12D). The test can be described thus: HTRF KRAS G12D GTP binding assay. Particulars: displacement of GTP-Red tracer. The method, then:
KRAS^G12D was used in this assay.
The ability of a test compound to bind to KRAS^G12D was measured by using an HTRF KRAS^G12D GTP Binding Kit (Cisbio, 63ADK000CB27PEG). […] 5 μL of compound solution was added to each well after serial dilution, followed by addition of 5 μL of GDP (50 nM) solution. After 30 minutes incubation at room temperature, 1×6His Eu cryptate antibody solution and GTP-Red tracer were added to the plate, then incubated for another 30 minutes. The HTRF signal was measured with a VICTOR Nivo multimode plate reader according to the manufacturer's instructions. The percent inhibition was calculated using the following formula: […]
(where the “Maximum Signal” are wells containing DMSO without inhibitor; the “Minimum Signal” are wells containing reference inhibitory component (GDP); the “Test compound signal” are wells containing test compound (inhibitor) at established concentrations).
IC50 was determined by fitting percent inhibition at each inhibitor concentration to the four-parameter nonlinear logistic equation using GraphPad Prism.
Background: Time-resolved FRET reads energy transfer from a long-lived donor to a nearby acceptor.

His-tagged Human KRAS^G12D, sequence (P01116-2 other isoform, or with tags, fused parts or gaps G12D): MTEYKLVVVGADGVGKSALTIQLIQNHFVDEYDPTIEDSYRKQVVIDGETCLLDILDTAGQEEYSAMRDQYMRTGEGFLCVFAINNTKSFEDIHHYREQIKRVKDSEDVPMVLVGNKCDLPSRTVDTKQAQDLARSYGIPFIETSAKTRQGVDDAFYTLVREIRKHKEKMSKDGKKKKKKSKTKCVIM

Regarding `CCc1c(F)ccc2cc(O)cc(-c3ncc4c(N5CCC[C@]6(CCO6)C5)nc(OCC5(CN6CCC7(CC6)COC7)CC5)nc4c3F)c12` [Compound 18a], the IC50 turned out to be 23 nM with NCI-H358, 1.9 nM in the test on GP2D and 4.5 nM in test [1].
The matching figures for `CCc1c(F)ccc2cc(O)cc(-c3ncc4c(N5CCC[C@]6(CCO6)C5)nc(OCC5(CN6CCC7(CC6)CC(N6CCC(c8ccc9cnn(C)c9c8)CC6)C7)CC5)nc4c3F)c12` [Compound 19a]: 15.2 nM, 14.1 nM and 16.1 nM.
The matching figures for `CCc1c(F)ccc2cc(O)cc(-c3ncc4c(N5CCC[C@]6(CCO6)C5)nc(OCC5(CN6CCC7(CC6)CC(N6CCOCC6)C7)CC5)nc4c3F)c12` [Compound 20a]: 125 nM, 4.7 nM and 4.7 nM.
The matching figures for `CCc1c(F)ccc2cc(O)cc(-c3ncc4c(N5CCC[C@]6(CCO6)C5)nc(OCC5(CN6CCC7(CC6)CC(N6CCCCC6)C7)CC5)nc4c3F)c12` [Compound 21a]: 92.2 nM, 16.3 nM and 6.8 nM.
For `CCc1c(F)ccc2cc(O)cc(-c3ncc4c(N5CCC[C@]6(CCO6)C5)nc(OCC5(CN6CCC(C(=O)O)CC6)CC5)nc4c3F)c12` [Compound 33a], the IC50 was more than 10000 nM in the test on NCI-H358, 421 nM with GP2D and 10.3 nM in test [1].
Molecule `CCc1c(F)ccc2cc(O)cc(-c3ncc4c(N5CCC6(CNC(=O)O6)C5)nc(OC[C@@]56CCCN5C[C@H](F)C6)nc4c3F)c12` (stereo partly shown) [Compound 43] showed an IC50 in test [1] of more than 1000 nM.
Still for that read-out and setting: under `CCc1c(F)ccc2cc(O)cc(-c3ncc4c(N5CCCCCC5)nc(OCC5(CN(C)C)CC5)nc4c3F)c12` [Compound 43a] stands 557 nM.
The same measure, in the same setting: under `CCc1c(F)ccc2cc(O)cc(-c3ncc4c(N5CC6(CC(=O)C6)C5)nc(OC[C@@]56CCCN5C[C@H](F)C6)nc4c3F)c12` [Compound 44] stands more than 1000 nM; under `CCc1c(F)ccc2cc(O)cc(-c3ncc4c(N5CCCC(O)CC5)nc(OCC5(CN(C)C)CC5)nc4c3F)c12` (stereo not shown) [Compound 44a], 234 nM.
The same measure, in the same setting: under `CCc1c(F)ccc2cc(O)cc(-c3ncc4c(N5CCC[C@H]5C(C)(C)O)nc(OC[C@@]56CCCN5C[C@H](F)C6)nc4c3F)c12` [Compound 45] stands more than 1000 nM.
For the molecule `CCc1c(F)ccc2cc(O)cc(-c3ncc4c(N5CCCCC(OC)C5)nc(OCC5(CN(C)C)CC5)nc4c3F)c12` (stereo not shown) [Compound 45a], the IC50 in test [1] is more than 1000 nM.
Same read-out and setting: next, `CCc1c(F)ccc2cc(O)cc(-c3ncc4c(N5C[C@H]6C[C@@H]5C(=O)N6)nc(OC[C@@]56CCCN5C[C@H](F)C6)nc4c3F)c12` [Compound 46]: more than 1000 nM; `CCc1c(F)ccc2cc(O)cc(-c3ncc4c(N5CCCCC(O)C5)nc(OCC5(CN(C)C)CC5)nc4c3F)c12` (stereo not shown) [Compound 46a]: 684 nM; `CCc1c(F)ccc2cc(O)cc(-c3ncc4c(OC[C@@]56CCCN5C[C@H](F)C6)nc(OC[C@@]56CCCN5C[C@H](F)C6)nc4c3F)c12` [Compound 47]: more than 1000 nM.
The same measure, in the same setting: under `CCc1c(F)ccc2cc(O)cc(-c3ncc4c(N5CC[C@H](CO)C5)nc(OC[C@@]56CCCN5C[C@H](F)C6)nc4c3F)c12` [Compound 48] stands more than 1000 nM.
On the same count and under the same terms, next, `N#Cc1c(N)sc2c(F)ccc(-c3c(Cl)cc4c(N5CCC[C@]6(CCO6)C5)nc(OCC5(CN6CCCCC6)CC5)nc4c3F)c12` [Compound 48a]: more than 1000 nM.
`CCc1c(F)ccc2cc(O)cc(-c3ncc4c(N5CCC(C(C)=O)CC5)nc(OC[C@@]56CCCN5C[C@H](F)C6)nc4c3F)c12` [Compound 49] displayed an IC50 in test [1] of more than 1000 nM.
For `CCc1c(F)ccc2cc(O)cc(-c3ncc4c(N5CCC[C@]6(CCO6)C5)nc(OCC5(CN(C)CC6COC6)CC5)nc4c3F)c12` [Compound 49a], in test [1], the IC50 was 4.05 nM.
On the same count and under the same terms, next, `CCc1c(F)ccc2cc(O)cc(-c3ncc4c(N5CCCC6(COC6)C5)nc(OC[C@@]56CCCN5C[C@H](F)C6)nc4c3F)c12` [Compound 50]: 71 nM.
Same read-out and setting: next, `CCc1c(F)ccc2cc(O)cc(-c3ncc4c(N5CCC[C@]6(CCO6)C5)nc(OCC5(CN(C)CC6CCOC6)CC5)nc4c3F)c12` (stereo partly shown) [Compound 50a]: 6.76 nM; `CCc1c(F)ccc2cc(O)cc(-c3ncc4c(N5CCC6CC6(O)C5)nc(OC[C@@]56CCCN5C[C@H](F)C6)nc4c3F)c12` (stereo partly shown) [Compound 52]: more than 1000 nM.
Same read-out and setting: next, `CCc1c(F)ccc2cc(O)cc(-c3ncc4c(N5CCC6(CC5)COC6)nc(OC[C@@]56CCCN5C[C@H](F)C6)nc4c3F)c12` [Compound 53]: more than 1000 nM; `CCc1c(F)ccc2cc(O)cc(-c3ncc4c(N5CC6(COC6)C5)nc(OC[C@@]56CCCN5C[C@H](F)C6)nc4c3F)c12` [Compound 54]: more than 1000 nM.
`CCc1c(F)ccc2cc(O)cc(-c3ncc4c(N5C[C@H](N)C[C@H]5CO)nc(OC[C@@]56CCCN5C[C@H](F)C6)nc4c3F)c12` [Compound 55]: in test [1], the IC50 was more than 1000 nM.
On the same count and under the same terms, under `CCc1c(F)ccc2cc(O)cc(-c3ncc4c(N5CCC(C)(CO)C5)nc(OC[C@@]56CCCN5C[C@H](F)C6)nc4c3F)c12` (stereo partly shown) [Compound 56] stands more than 1000 nM; under `CCc1c(F)ccc2cc(O)cc(-c3ncc4c(N5[C@H](CO)C[C@H]6C[C@H]65)nc(OC[C@@]56CCCN5C[C@H](F)C6)nc4c3F)c12` [Compound 57], 510 nM; under `CCc1c(F)ccc2cc(O)cc(-c3ncc4c(N5CCC6(CCCC6=O)CC5)nc(OC[C@@]56CCCN5C[C@H](F)C6)nc4c3F)c12` [Compound 58], more than 1000 nM.
On the same count and under the same terms, next, `CCc1c(F)ccc2cc(O)cc(-c3ncc4c(N5CCC6(CCC6=O)CC5)nc(OC[C@@]56CCCN5C[C@H](F)C6)nc4c3F)c12` [Compound 59]: more than 1000 nM; `CCc1c(F)ccc2cc(O)cc(-c3ncc4c(N5CCC6(CCO6)CC5)nc(OC[C@@]56CCCN5C[C@H](F)C6)nc4c3F)c12` [Compound 60]: more than 1000 nM; `CCc1c(F)ccc2cc(O)cc(-c3ncc4c(N5CCC6(COC6)C5)nc(OC[C@@]56CCCN5C[C@H](F)C6)nc4c3F)c12` [Compound 61]: more than 1000 nM.
Still for that read-out and setting: next, `CCc1c(F)ccc2cc(O)cc(-c3ncc4c(N5CCC6(CCO6)C5)nc(OC[C@@]56CCCN5C[C@H](F)C6)nc4c3F)c12` (stereo partly shown) [Compound 62]: more than 1000 nM; `Nc1cc(Cl)c(C(F)(F)F)c(-c2ncc3c(N4CCCC5(COC5)C4)nc(OC[C@@]45CCCN4C[C@H](F)C5)nc3c2F)c1` [Compound 63]: more than 1000 nM.
`CCc1c(F)ccc2cc(O)cc(-c3ncc4c(N5CCCC6(CCOC6)C5)nc(OC[C@@]56CCCN5C[C@H](F)C6)nc4c3F)c12` (stereo partly shown) [Compound 64]: the IC50 in test [1] is more than 1000 nM.
On the same count and under the same terms, next, `CCc1c(F)ccc2cc(O)cc(-c3ccc4c(N5CCCC6(CCO6)C5)nc(OC[C@@]56CCCN5C[C@H](F)C6)nc4c3F)c12` (stereo partly shown) [Compound 70]: 67.4 nM.
The same measure, in the same setting: under `CCc1c(F)ccc2cc(O)cc(-c3c(Cl)cc4c(N5CCCC6(CCO6)C5)nc(OC[C@@]56CCCN5C[C@H](F)C6)nc4c3F)c12` (stereo partly shown) [Compound 92] stands 416 nM; under `CCc1c(F)ccc2cc(O)cc(-c3c(F)cc4c(N5CCCC6(CCO6)C5)nc(OC[C@@]56CCCN5C[C@H](F)C6)nc4c3F)c12` (stereo partly shown) [Compound 96], 128 nM.
On the same count and under the same terms, next, `CCc1c(F)ccc2cc(O)cc(-c3ncc4c(N5CC6(CCC6O)C5)nc(OC[C@@]56CCCN5C[C@H](F)C6)nc4c3F)c12` (stereo partly shown) [Compound 110]: more than 1000 nM.
For `CCc1c(F)ccc2cc(O)cc(-c3ncc4c(N5CC6(CCC6=O)C5)nc(OC[C@@]56CCCN5C[C@H](F)C6)nc4c3F)c12` [Compound 112], the IC50 in test [1] is more than 1000 nM.
The molecule `CCc1c(F)ccc2cc(O)cc(-c3ncc4c(N5CCCC6(C5)OCCO6)nc(OC[C@@]56CCCN5C[C@H](F)C6)nc4c3F)c12` [Compound 117] yielded an IC50 in test [1] of 373 nM.
